Results reported in the supplement of paper PMC10307832.

Legend:
Assay in all cases: relative viability (nuclei count vs DMSO), 5 days (fraction); higher = more cells survive
XMD14-99 + Dasatinib = compound: CN1CCN(CC1)C2=CC(=C(C=C2)NC3=NC(=C(S3)C(=O)C4=C(C=CC=C4Cl)Cl)N)OC [XMD14-99] + Cc1nc(Nc2ncc(C(=O)Nc3c(C)cccc3Cl)s2)cc(N2CCN(CCO)CC2)n1 [Dasatinib] (partner 0.075 µM)
How it was run: (§1)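 The day after seeding in 1536-well plates, lung cancer cell lines were treated by pin tool with a single drug, or with a fixed anchor-drug dose together with five library-drug doses (not always all listed) in √10 steps. After 5 days, a combined fix-and-stain solution (final 0.05% Triton X-100, 1% formaldehyde, 1 ug/ml Hoechst) was added. Nuclei counted on 4× images gave relative viability as treated counts over vehicle counts, reported as the median of duplicate plates.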

XMD14-99 + Navitoclax = compound: CN1CCN(CC1)C2=CC(=C(C=C2)NC3=NC(=C(S3)C(=O)C4=C(C=CC=C4Cl)Cl)N)OC [XMD14-99] + CC1(C)CCC(c2ccc(Cl)cc2)=C(CN2CCN(c3ccc(C(=O)NS(=O)(=O)c4ccc(N[C@H](CCN5CCOCC5)CSc5ccccc5)c(S(=O)(=O)C(F)(F)F)c4)cc3)CC2)C1 [Navitoclax] (partner 0.5 µM)
How it was run: as §1

XMD14-99 + Linsitinib = compound: CN1CCN(CC1)C2=CC(=C(C=C2)NC3=NC(=C(S3)C(=O)C4=C(C=CC=C4Cl)Cl)N)OC [XMD14-99] + C[C@]1(O)C[C@@H](c2nc(-c3ccc4ccc(-c5ccccc5)nc4c3)c3c(N)nccn32)C1 [Linsitinib] (partner 1 µM)
How it was run: as §1

XMD14-99 + Palbociclib = compound: CN1CCN(CC1)C2=CC(=C(C=C2)NC3=NC(=C(S3)C(=O)C4=C(C=CC=C4Cl)Cl)N)OC [XMD14-99] + CC(=O)c1c(C)c2cnc(Nc3ccc(N4CCNCC4)cn3)nc2n(C2CCCC2)c1=O [Palbociclib] (partner 0.5 µM)
How it was run: as §1

XMD14-99 + Trametinib = compound: CN1CCN(CC1)C2=CC(=C(C=C2)NC3=NC(=C(S3)C(=O)C4=C(C=CC=C4Cl)Cl)N)OC [XMD14-99] + CC(=O)Nc1cccc(-n2c(=O)n(C3CC3)c(=O)c3c(Nc4ccc(I)cc4F)n(C)c(=O)c(C)c32)c1 [Trametinib] (partner 0.02 µM)
How it was run: as §1

| Cell Line | relative viability (XMD14-99 + Dasatinib; first compound 0.08 µM) | relative viability (XMD14-99 + Dasatinib; first compound 0.8 µM) | relative viability (XMD14-99 + Dasatinib; first compound 2.53 µM) | relative viability (XMD14-99 + Dasatinib; first compound 8 µM) | relative viability (XMD14-99 + Navitoclax; first compound 0.08 µM) | relative viability (XMD14-99 + Navitoclax; first compound 0.8 µM) | relative viability (XMD14-99 + Navitoclax; first compound 2.53 µM) | relative viability (XMD14-99 + Navitoclax; first compound 8 µM) | relative viability (XMD14-99 + Linsitinib; first compound 0.08 µM) | relative viability (XMD14-99 + Linsitinib; first compound 0.8 µM) | relative viability (XMD14-99 + Linsitinib; first compound 2.53 µM) | relative viability (XMD14-99 + Linsitinib; first compound 8 µM) | relative viability (XMD14-99 + Palbociclib; first compound 0.08 µM) | relative viability (XMD14-99 + Palbociclib; first compound 0.8 µM) | relative viability (XMD14-99 + Palbociclib; first compound 2.53 µM) | relative viability (XMD14-99 + Palbociclib; first compound 8 µM) | relative viability (XMD14-99 + Trametinib; first compound 0.08 µM) | relative viability (XMD14-99 + Trametinib; first compound 0.8 µM) | relative viability (XMD14-99 + Trametinib; first compound 2.53 µM) | relative viability (XMD14-99 + Trametinib; first compound 8 µM) |
| --- | --- | --- | --- | --- | --- | --- | --- | --- | --- | --- | --- | --- | --- | --- | --- | --- | --- | --- | --- | --- |
| HARA | 0.274 | 0.249 | 0.273 | 0.189 | 1.15 | 1.18 | 1.17 | 1.02 | 0.901 | 0.946 | 0.701 | 0.605 | 0.291 | 0.25 | 0.281 | 0.204 | 0.577 | 0.549 | 0.465 | 0.466 |
| HCC-15 | 0.601 | 0.65 | 0.548 | 0.431 | 0.663 | 0.617 | 0.609 | 0.494 | 0.91 | 0.902 | 0.826 | 0.702 | 0.733 | 0.765 | 0.733 | 0.629 | 0.415 | 0.412 | 0.353 | 0.349 |
| HCC-44 |  |  |  |  | 1.07 | 0.888 | 0.935 | 0.9 | 0.719 | 0.692 | 0.708 | 0.61 | 1.03 | 0.969 | 1 | 1.01 | 1.02 | 1.04 | 1.11 | 1.01 |
| HCC-78 | 0.421 | 0.299 | 0.431 | 0.239 | 0.657 | 0.729 | 0.794 | 0.622 | 0.526 | 0.477 | 0.509 | 0.446 | 0.487 | 0.54 | 0.557 | 0.445 | 0.628 | 0.711 | 0.753 | 0.438 |
| IA-LM |  |  |  |  | 0.732 | 0.56 | 0.449 | 0.295 | 0.648 | 0.308 | 0.286 | 0.281 |  |  |  |  |  |  |  |  |
| LCLC-103H | 0.383 | 0.582 | 0.472 | 0.442 |  |  |  |  | 0.909 | 1.13 | 1 | 0.973 | 0.487 | 0.491 | 0.421 | 0.481 | 0.702 | 0.716 | 0.719 | 0.665 |
| NCI-H358 | 0.157 | 0.175 | 0.151 | 0.141 |  |  |  |  | 0.703 | 0.673 | 0.557 | 0.29 | 0.0998 | 0.147 | 0.132 | 0.124 | 0.118 | 0.179 | 0.134 | 0.127 |
| NCI-H522 | 0.821 | 0.93 | 0.83 | 0.805 |  |  |  |  |  |  |  |  | 0.858 | 1.06 | 0.906 | 1.05 | 0.783 | 0.901 | 0.75 | 0.85 |
| NCI-H596 | 0.597 | 0.604 | 0.572 | 0.562 | 1.03 | 0.956 | 0.702 | 0.88 | 1.06 | 1.05 | 1.08 | 1.04 |  |  |  |  | 0.749 | 0.849 | 1.06 | 0.764 |
| NCI-H650 | 0.467 | 0.422 | 0.451 | 0.356 |  |  |  |  | 1.08 | 0.906 | 0.77 | 0.675 | 0.341 | 0.337 | 0.34 | 0.38 | 0.861 | 0.932 | 1.05 | 0.907 |
| NCI-H661 | 0.976 | 0.86 | 0.828 | 0.627 |  |  |  |  | 0.5 | 0.58 | 0.502 | 0.441 | 0.406 | 0.452 | 0.386 | 0.358 | 0.573 | 0.598 | 0.481 | 0.516 |
| NCI-H1299 |  |  |  |  | 1.08 | 1.03 | 0.994 | 0.825 | 0.95 | 0.905 | 0.908 | 0.846 |  |  |  |  |  |  |  |  |
| NCI-H1563 | 0.452 | 0.464 | 0.449 | 0.447 |  |  |  |  | 1.21 | 1.12 | 1.17 | 1.08 |  |  |  |  |  |  |  |  |
| NCI-H1648 |  |  |  |  |  |  |  |  |  |  |  |  | 0.261 | 0.267 | 0.268 | 0.289 | 0.613 | 0.46 | 0.459 | 0.466 |
| NCI-H1650 | 0.335 | 0.289 | 0.316 | 0.2 | 1.15 | 1.44 | 0.992 | 1.04 |  |  |  |  | 0.389 | 0.328 | 0.345 | 0.306 | 0.642 | 0.738 | 0.542 | 0.503 |
| NCI-H1703 |  |  |  |  | 1.06 | 1.11 | 0.933 | 0.719 | 0.843 | 0.888 | 0.752 | 0.57 |  |  |  |  |  |  |  |  |
| NCI-H2170 | 0.612 | 0.62 | 0.601 | 0.592 | 0.574 | 0.594 | 0.644 | 0.603 |  |  |  |  | 0.426 | 0.4 | 0.425 | 0.395 | 0.924 | 0.873 | 0.828 | 0.786 |
| NCI-H2342 | 0.29 | 0.292 | 0.354 | 0.285 |  |  |  |  |  |  |  |  | 0.564 | 0.614 | 0.576 | 0.544 | 0.885 | 0.882 | 0.949 | 0.848 |
| SW 900 | 0.662 | 0.784 | 0.702 | 0.426 |  |  |  |  |  |  |  |  | 0.57 | 0.567 | 0.514 | 0.359 | 0.779 | 0.876 | 0.752 | 0.756 |
